Measurements as given in patent publication US20180318199A1, “Pharmaceutical Composition Having Anti-Aging Properties against High-Glucose” (TAIWAN LEADER BIOTECH CORP., priority 2017, published 2018).

Assays:
Type in all cases: cell-based, human
HNDFs (CCD966SK) = experiment: MTT cytotoxicity of antcins against HNDFs; details: for IC50: MTT assay, 72 h, 1, 5, 10 and 20 μM tested, read-out: 50% inhibitory concentration (IC50) against HNDFs; for cytotoxicity to HNDFs (in words): MTT, 72 h, up to 20 μM
Description: Please refer to FIG. 2A˜FIG. 2D, which are views showing HG-induced senescence affected by antcins in HNDFs. As shown in the figures, prior to an investigation, cytotoxicity of antcins against HNDFs is determined. In FIG. 2A, type of antcins are subjected to screen for potential anti-aging agents for skin aging. Names and chemical structures of the antcins are shown in the left and center column, respectively. The cytotoxic effects of antcins against HNDFs are investigated. Briefly, HNDFs are incubated with increasing concentrations (1, 5, 10 and 20 μM) of antcins including ANA, ANB, ANC, ANH, ANK and ANM for 72 h and the cell viability is determined by MTT assay. The 50% inhibitory concentrations (IC50) of each compound against HNDFs are shown in right column.
Cell viability is assessed by MTT colorimetric assay. Briefly, HNDFs (2×10^4cells/well) or HUVECs (5×10^4 cells/well) are seeded in a 24-well culture plate. After treatment with HG (15 and 30 mM) in the presence or absence of samples for 24-72 h, culture media is withdrawn and incubated with MTT (1 mg/mL) in fresh medium for 2 h. The MTT formazan crystals are dissolved in 400 μL of DMSO and the samples are measured at 570 nm […] using an ELISA microplate reader (Bio-Tek Instruments, Winooski, Vt.). The percentage of cell viability (%) is calculated as (A570 of treated cells/A570 of untreated cells)×100.

HNDFs [1] = experiment: Trypan blue exclusion cell proliferation assay in HNDFs; details: antcins 10 μM + HG 30 mM, 72 h, trypan blue exclusion
Description: To further clarify the effect of antcins, HG-induced reduction in cell proliferation is determined. In FIG. 2D, to determine the effect of antcins on cell proliferation efficacy, 5×10^4 cells/well of HNDFs are incubated with antcins in 6-well plates in the presence of HG (30 mM) for 72 h. Number of viable cells is quantified by the tryphan blue exclusion method. Results are expressed as mean±S.E.M of three indipendent expriments. Statistical significance is set at ^ϕP<0.05 as compared to NG vs. HG and *P<0.05 as compared to HG vs. samples. […] Therefore, the molecular mechanism underlying the protective effect of ANM is explored next.
Furthermore, in FIG. 3C, to determine the effect of ANM or NAC on cell proliferation, 5×10^4 cells/well of HNDFs are incubated in a 6-well plate with ANM (10 μM) or NAC (100 μM) in the presence of HG (30 mM) for 72 h. Number of viable cells is quantified by the tryphan blue exclusion method. Results expressed as mean±S.E.M of three independent experiments. Statistical significance is set at ^ϕP<0.05 as compared to NG vs. HG and *P<0.05 as compared to HG vs. samples.
Cell proliferation is evaluated using trypan blue exclusion assay as described previously with minor modification. Cells are plated into 6-well plates at a density of 5×10^4 cells/well. After incubation overnight, cells are treated with test samples in the presence or absence of HG for 24-72 h. Cells exposed to 0.2% Trypan blue are then counted in a hemocytometer, and cells stained with Trypan blue are excluded. Percentage of viable cells is calculated based on the ratio of viable cells to total cell population in each well. The proliferation rate is calculated based on the number of viable cells in HG or sample-treated groups versus the NG-treated group.

[2] = system: p16^INK4A, p21^CIP1 and SMP30; experiment: Western blot of senescence-associated marker proteins in HNDFs; details: 10 μM + HG 30 mM, 72 h, western blot
Description: In addition, in FIG. 2C, HNDFs are incubated with ANA (10 μM), ANH (10 μM) and ANM (10 μM) in the presence of HG (30 mM) for 72 h. Senescence-associated marker proteins such as p16^INK4A, p21^CIP1 and SMP30 are determined by western blot analysis.
In order to assess the cellular and molecular basis of the ANM-mediated inhibition of senescence, the expression levels of senescence-associated marker proteins including, p16^INK4A and p21^CIP1 are examined. In FIG. 4D, to determine the effect of ANM on senescence-associated protein expression, HNDFs are incubated with ANM (10 μM) or NAC (100 μM) in the presence or absence of HG (30 mM) for 72 h. Immunoblotting analysis is used to determine the protein levels with corresponding specific antibodies.
(§1) Cells are lysed by either RIPA lysis buffer or nuclear and cytoplasmic extraction reagents (Thermo Fisher Scientific). Protein concentrations are determined by Bio-Rad protein assay reagent (Bio-Rad Laboratories, Hercules, Calif.). Equal amounts of protein samples (60 μg) are separated by 7-12% SDS-PAGE and the separated proteins are transferred onto polyvinylidene […] (PVDC) membrane overnight. The transferred protein membranes are blocked with 5% non-fat dried milk for 30 min, followed by incubation with specific primary antibodies overnight, and either horseradish peroxidase-conjugated goat anti-rabbit or anti-mouse antibodies for 2 h. The blots are detected using VL Chemi-Smart 3000 (Viogene Biotek, Sunnyvale, Calif.) with the enhanced chemiluminescence (ECL) western blotting reagent (Millipore, Billerica, Mass.).

HNDFs [3] = experiment: SA-β-gal senescence assay in HG-induced HNDFs; details: for SA-β-gal positive cells: 10 μM compound + HG 30 mM, 72 h, HG alone 9.59-fold (FIG. 2B); for HG-induced SA-β-gal activity, kinase inhibitors: inhibitor 30 μM + HG 30 mM, 72 h (FIG. 4H)
Description: Next, the protective effects of antcins on HG-induced HNDF senescence are examined. In FIG. 2B, cells were incubated with ANA (10 μM), ANH (10 μM) and ANM (10 μM) in the presence of HG (30 mM) for 72 h. Cellular senescence is determined by SA-β-gal activity. […] After cells are co-incubated with HG and antcins (ANA, ANH and ANM) for 72 h, senescence is measured by SA-β-gal assay.
Therefore, in order to examine whether the ROS inhibitory effect may be extended to suppress HG-induced senescence, HG-induced senescenece eliminated by ANM is examined. In FIG. 4B, HNDFs are incubated with ANM (10 μM) or NAC (100 μM) in the presence or absence of HG (30 mM) for 72 h. Cellular senescence is determined by SA-β-gal assay. […] As is shown, cells are co-incubated with HG and ANM or NAC for 72 h.
Senescence-associated β-galactosidase (SA-β-gal) activity is determined in formaldehyde-fixed histochemical staining kit according to the manufacturer's instructions (Cell Signaling Technology, Danvers, Calif.). Briefly, cells are grown in 6-well plates at a density of 5×10^4 cells/well, and incubated with HG or test samples for 48 h (HUVECs) or 72 h (HNDFs). After incubation, cells are stained with SA-β-gal staining solution at pH 6.0 overnight and then the development of blue staining is observed and photographed under a bright-field microscope (Motic Electric Group, Xiamen, P.R. China).

p53 and FoxO1 = experiment: Western blot of p53 and FoxO1 acetylation/phosphorylation in HNDFs; details: pharmacological inhibitor in the presence of HG (FIG. 4G)
Description: It is well known that p16^INK4A and p21^CIP1 are regulated by transcription factors p53 and FoxO1 followed by acetylation. […] In addition, p53 phosphorylation at Ser15 by their upstream kinases promotes transcriptional activation in response to DNA damage.
To further examine the phenomenon that HG-induced p53 activation is relayed by the p38 MAPK or JNK/SAPK cascade, cells are incubated with corresponding pharmacological inhibitors, SB203580, SP600125, PD98059 and LY294002 for p38MAPK, JNK/SAPK, ERK1/2 and P13K/AKT, respectively in the presence of HG.
(§2) The protein expression levels of SIRT-1, SIRT-6, p21^CIP1, SMP30, p53, FoxO and acetylation of p53 and FoxO1 are determined by western blot analysis.
as §1

SIRT-1, SIRT-3, SIRT-6 = experiment: Western blot of SIRT proteins and phos-SIRT-1 in HNDFs; details: inhibitor 30 μM + HG, 72 h
Description: Total cell lysate is extracted and subjected to western blot analysis to monitor SIRT-1, SIRT-3, SIRT-6 protein levels.
as §2
To further understand the regulation of SIRT-1 by ANM, the effect of ANM on SIRT-1 activation and protein stability is examined under hyperglycemic conditions. In FIG. 7I, cells are incubated with JNK/SAPK or p38 MAPK inhibitors SP600125 (SP, 30 μM) and SB203580 (SB, 30 μM) in the presence of HG for 72 h. The protein expression levels of phos-SIRT-1 and SIRT-1 are determined by western blotting. Results are expressed as mean±S.E.M of three independent experiments. Statistical significance is set at ^ϕP<0.05 as compared to NG vs. HG and *P<0.05 as compared to HG vs. samples. Previous studies have shown that hyperphosphorylation of SIRT-1 at serine 47 (Ser47) is correlated with enhanced endothelial senescence. In addition, persistent activation of JNK1/2 by multiple factors including hyperglycemia induces extensive SIRT-1 proteasome degradation followed by phosphorylation at Ser47. […] Therefore, it is hypothesized that ANM-mediated suppression of JNK1/2 and p38 MAPK activation may have a functional role in the stability of SIRT-1 protein.
as §1

Nrf2 = experiment: ARE luciferase reporter assay (Nrf2 transcriptional activity) in HNDFs; details: inhibitor 30 μM 2 h, then ANM 10 μM + HG 30 mM 6 h
Description: Therefore, to determine whether ANM augments Nrf2 transcriptional activity, ARE-harboring luciferase reporter assay is used. In FIG. 5E, to determine the Nrf2 transcriptional activity, HNDFs are transiently transfected with ARE promoter construct using lipofectamine and incubated with ANM (10 μM) or NAC (100 μM) in the presence or absence of HG (30 mM) for 6 h. Cell lysates are mixed with luciferase reagents and quantified using an illuminometer. Relative ARE promoter activity is calculated by dividing the relative luciferace unit (RLU) of treated cells by RLU of untreated cells (NG).
Activation of P13K/AKT and mitogen-activated protein kinases (MAPKs), including ERK1/2, JNK/SAPK and p38 MAPK, facilitates Nrf2 transcriptional activation in a variety of human cell lines. […] To elucidate the upstream signaling events involved in ANM-induced Nrf2 transcriptional activity, cells are pre-incubated with pharmacological inhibitors of P13K/AKT (LY294002), ERK1/2 (PD98059), SAPK/JNK (SP600125) and p38MAPK (SB203580) for 2 h and treated with ANM for 6 h in the presence of HG. In FIG. 5G, HNDFs are pre-incubated with AKT, ERK1/2, JNK/SAPK and p38 MAPK inhibitors, including LY294002 (LY, 30 μM), PD98059 (PD, 30 μM), SP600125 (SP, 30 μM) and SB203580 (SB, 30 μM), respectively, for 2 h and then incubated with ANM (10 μM) in the presence of HG (30 mM) for 6 h. Cytoplasmic and nuclear fractions are prepared and subjected to western blot analysis. GAPDH and histone H3 are served as internal controls for the cytoplasmic and nuclear fraction, respectively.
ARE promoter activity is measured using a dual-luciferase reporter assay system (Promega, Madison, Wis.). […] Cells are then transfected with ARE plasmid (Qiagen, Hilden, Germany) using Lipofectamine 2000 (Invitrogen) and incubated for 36 h. […] The cell lysate is prepared and incubated with luciferase agents and the relative luminescence intensity is quantified using a spectrophotometer (Hidex Oy, Turku, Finland).

## C=C(CC[C@@H](C)[C@H]1CC[C@H]2C3=C(C(=O)C[C@]12C)[C@@]1(C)CCC(=O)[C@@H](C)[C@@H]1CC3=O)[C@H](C)C(=O)O [ANB, antcin B]
HNDFs (CCD966SK)
  IC50: 7.11 µM
  cytotoxicity to HNDFs (in words): strong cytotoxicity

## C=C(CCC(C)C1CCC2C3=C(C(=O)C(O)C21C)C1(C)CCC(O)C(C)C1CC3=O)C(C)C(=O)O (centres unmarked) [ANH, antcin H]
HNDFs [1]
  cell proliferation (number of viable cells) vs HG group: partially increase
[2]
  HG-induced p16^INK4A and p21^CIP1 protein expression: moderate inhibition
HNDFs (CCD966SK)
  cytotoxicity to HNDFs (in words): did not show significant cytotoxicity
HNDFs [3]
  SA-β-gal positive cells: 8.13 fold

## C=C(CC[C@@H](C)[C@H]1CC[C@H]2C3=C(C(=O)C[C@]12C)[C@@]1(C)CC[C@@H](O)[C@](C)(O)[C@@H]1C[C@@H]3O)C(C)C(=O)O (some centres unmarked) [ANK, antcin K]
HNDFs (CCD966SK)
  IC50: 2.89 µM
  cytotoxicity to HNDFs (in words): strong cytotoxicity

## C=C(CC[C@@H](C)[C@H]1CC[C@H]2C3=C(C(=O)C[C@]12C)[C@@]1(C)CCC(=O)[C@@H](C)[C@@H]1C[C@@H]3O)[C@H](C)C(=O)O [ANC, antcin C]
HNDFs (CCD966SK)
  cytotoxicity to HNDFs (in words): did not show significant cytotoxicity

## C=C(CC[C@@H](C)[C@H]1CC[C@H]2C3=C(C(=O)C[C@]12C)[C@@]1(C)CCC(=O)[C@@H](C)[C@@H]1CC3)C(C)C(=O)O (some centres unmarked) [ANA, antcin A]
HNDFs [1]
  cell proliferation (number of viable cells) vs HG group: partially increase
[2]
  HG-induced p16^INK4A and p21^CIP1 protein expression: moderate inhibition
HNDFs (CCD966SK)
  cytotoxicity to HNDFs (in words): did not show significant cytotoxicity
HNDFs [3]
  SA-β-gal positive cells: 7.46 fold

## C[S+]([O-])c1ccc(-c2nc(-c3ccncc3)c(-c3ccc(F)cc3)[nH]2)cc1 (centres unmarked) [SB203580, reference compound]
p53 and FoxO1
  HG-induced p16^INK4A expression and p53 phosphorylation, kinase inhibitors: reduced
SIRT-1, SIRT-3, SIRT-6
  SIRT-1 phosphorylation and reduction in SIRT-1, kinase inhibitors: inhibits
HNDFs [3]
  HG-induced SA-β-gal activity, kinase inhibitors: barely observed
Nrf2
  ANM-induced ARE luciferase activity after inhibitor pretreatment: partially or barely inhibits

## COc1cccc(-c2cc(=O)c3ccccc3o2)c1N [PD98059, reference compound]
p53 and FoxO1
  HG-induced p16^INK4A expression and p53 phosphorylation, kinase inhibitors: fails to protect
HNDFs [3]
  HG-induced SA-β-gal activity, kinase inhibitors: does not affect
Nrf2
  ANM-induced ARE luciferase activity after inhibitor pretreatment: effectively suppresses
